Reference: patent US20100267561A1, “HERBICIDAL PYRIDAZINONE DERIVATIVES” (priority 2007, published 2010)

Columns and labels:
Assay in all cases: Test E pre-/postemergence plant response
Assay type in all cases: in vivo
[1] = tested on: common groundsel (Senecio vulgaris); details: Postemergence, scale 0 to 100
Source text: (§1) Seeds of plant species selected from bermudagrass (Cynodon dactylon), Surinam grass (Brachiaria decumbens), large crabgrass (Digitaria sanguinalis), green foxtail (Setaria viridis), goosegrass (Eleusine indica), johnsongrass (Sorghum halepense), kochia (Kochia scoparia), pitted morningglory (Ipomoea lacunosa), purple nutsedge (Cyperus rotundus), common ragweed (Ambrosia elation), black mustard (Brassica nigra), guineagrass (Panicum maximum), dallisgrass (Paspalum dilatatum), barnyardgrass (Echinochloa crus-galli), southern (S.) sandbur (Cenchrus echinatus), common sowthistle (Sonchus oleraceous), prickly sida (Sida spinosa), Italian ryegrass (Lolium multiflorum), common purslane (Portulaca oleracea), broadleaf signalgrass (Brachiaria platyphylla), common groundsel (Senecio vulgaris), common chickweed (Stellaria media), Virginia (V.) dayflower (Commelina virginica), tropical (T.) spiderwort (Commelina benghalensis), annual bluegrass (Poa annua), naked crabgrass (Digitaria nuda), itchgrass (Rottboellia cochinchinensis), quackgrass (Elytrigia repens), Canada horseweed (Conyza canadensis), field bindweed (Convolvulus arvensis), spanishneedles (Bidens bipinnata), common mallow (Malva sylvestris) and Russian thistle (Salsola kali) were planted and treated preemergence with test chemicals formulated in a non-phytotoxic solvent mixture which included a surfactant. At the same time, plants selected from these weed species were treated with postemergence applications of some of the test chemicals formulated in the same manner. Plants ranged in height from 2 to 18 cm (1- to 4-leaf stage) for postemergence treatments.
(§2) Treated plants and controls were maintained in a greenhouse for 14 to 21 days, after which time all species were compared to controls and visually evaluated. Plant response ratings, summarized in Table E, are based on a scale of 0 to 100 where 0 is no effect and 100 is complete control. A dash (-) response means no test result.

[2] = tested on: annual bluegrass (Poa annua); details: scale 0 to 100
Source text: as §1, §2

[3] = tested on: quackgrass (Elytrigia repens); details: scale 0 to 100
Source text: as §1, §2

[4] = tested on: pitted morningglory (Ipomoea lacunosa); details: scale 0 to 100
Source text: as §1, §2

[5] = tested on: broadleaf signalgrass (Brachiaria platyphylla); details: scale 0 to 100
Source text: as §1, §2

[6] = tested on: common mallow (Malva sylvestris); details: Postemergence, scale 0 to 100
Source text: as §1, §2

[7] = tested on: itchgrass (Rottboellia cochinchinensis); details: scale 0 to 100
Source text: as §1, §2

[8] = tested on: surinam grass (Brachiaria decumbens); details: scale 0 to 100
Source text: as §1, §2

[9] = tested on: guineagrass (Panicum maximum); details: scale 0 to 100
Source text: as §1, §2

[10] = tested on: barnyardgrass (Echinochloa crus-galli); details: scale 0 to 100
Source text: as §1, §2

[11] = tested on: naked crabgrass (Digitaria nuda); details: scale 0 to 100
Source text: as §1, §2

CCc1cc(-c2ccc(Cl)cc2)nn1-c1c(OS(C)(=O)=O)cnn(C)c1=O [Compound 39]
98: Plant response rating, Crabgrass, Naked ([11]; 16 g ai/ha, Preemergence) | Plant response rating, Crabgrass, Naked ([11]; 31 g ai/ha, Preemergence) | Plant response rating, Crabgrass, Naked ([11]; Postemergence, 62 g ai/ha)
25: Plant response rating, Itchgrass ([7]; Postemergence, 16 g ai/ha)
60: Plant response rating, Quackgrass ([3]; 16 g ai/ha, Preemergence) | Plant response rating, Quackgrass ([3]; Postemergence, 31 g ai/ha) | Plant response rating, Quackgrass ([3]; Postemergence, 62 g ai/ha) | Plant response rating, Itchgrass ([7]; 16 g ai/ha, Preemergence) | Plant response rating, Itchgrass ([7]; Postemergence, 62 g ai/ha)
90: Plant response rating, Guineagrass ([9]; Postemergence, 31 g ai/ha) | Plant response rating, Barnyardgrass ([10]; 8 g ai/ha, Preemergence) | Plant response rating, Barnyardgrass ([10]; 16 g ai/ha, Preemergence)
100: Plant response rating, Quackgrass ([3]; 62 g ai/ha, Preemergence) | Plant response rating, Signalgrass ([5]; 62 g ai/ha, Preemergence) | Plant response rating, Signalgrass ([5]; Postemergence, 62 g ai/ha) | Plant response rating, Surinam Grass ([8]; 16 g ai/ha, Preemergence) | Plant response rating, Surinam Grass ([8]; 31 g ai/ha, Preemergence) | Plant response rating, Surinam Grass ([8]; 62 g ai/ha, Preemergence) | Plant response rating, Surinam Grass ([8]; Postemergence, 16 g ai/ha) | Plant response rating, Surinam Grass ([8]; Postemergence, 31 g ai/ha) | Plant response rating, Surinam Grass ([8]; Postemergence, 62 g ai/ha) | Plant response rating, Guineagrass ([9]; 16 g ai/ha, Preemergence) | Plant response rating, Guineagrass ([9]; 31 g ai/ha, Preemergence) | Plant response rating, Guineagrass ([9]; 62 g ai/ha, Preemergence) | Plant response rating, Barnyardgrass ([10]; 31 g ai/ha, Preemergence) | Plant response rating, Barnyardgrass ([10]; 62 g ai/ha, Preemergence) | Plant response rating, Barnyardgrass ([10]; Postemergence, 8 g ai/ha) | Plant response rating, Barnyardgrass ([10]; Postemergence, 16 g ai/ha) | Plant response rating, Barnyardgrass ([10]; Postemergence, 31 g ai/ha) | Plant response rating, Barnyardgrass ([10]; Postemergence, 62 g ai/ha) | Plant response rating, Crabgrass, Naked ([11]; 62 g ai/ha, Preemergence)
95: Plant response rating, Quackgrass ([3]; 31 g ai/ha, Preemergence) | Plant response rating, Signalgrass ([5]; 31 g ai/ha, Preemergence) | Plant response rating, Signalgrass ([5]; Postemergence, 16 g ai/ha) | Plant response rating, Signalgrass ([5]; Postemergence, 31 g ai/ha) | Plant response rating, Surinam Grass ([8]; Postemergence, 8 g ai/ha) | Plant response rating, Guineagrass ([9]; Postemergence, 62 g ai/ha)
40: Plant response rating, Itchgrass ([7]; Postemergence, 31 g ai/ha)
85: Plant response rating, Signalgrass ([5]; 16 g ai/ha, Preemergence)
0: Plant response rating, Groundsel ([1]; 31 g ai/ha) | Plant response rating, Groundsel ([1]; 62 g ai/ha) | Plant response rating, Bluegrass ([2]; 8 g ai/ha, Preemergence) | Plant response rating, Bluegrass ([2]; 16 g ai/ha, Preemergence) | Plant response rating, Bluegrass ([2]; 31 g ai/ha, Preemergence) | Plant response rating, Bluegrass ([2]; 62 g ai/ha, Preemergence) | Plant response rating, Bluegrass ([2]; Postemergence, 8 g ai/ha) | Plant response rating, Bluegrass ([2]; Postemergence, 16 g ai/ha) | Plant response rating, Bluegrass ([2]; Postemergence, 31 g ai/ha) | Plant response rating, Bluegrass ([2]; Postemergence, 62 g ai/ha) | Plant response rating, Quackgrass ([3]; Postemergence, 8 g ai/ha) | Plant response rating, Morningglory ([4]; 16 g ai/ha, Preemergence) | Plant response rating, Morningglory ([4]; 31 g ai/ha, Preemergence) | Plant response rating, Morningglory ([4]; 62 g ai/ha, Preemergence) | Plant response rating, Morningglory ([4]; Postemergence, 8 g ai/ha) | Plant response rating, Morningglory ([4]; Postemergence, 16 g ai/ha) | Plant response rating, Morningglory ([4]; Postemergence, 31 g ai/ha) | Plant response rating, Morningglory ([4]; Postemergence, 62 g ai/ha) | Plant response rating, Mallow ([6]; 8 g ai/ha) | Plant response rating, Mallow ([6]; 16 g ai/ha) | Plant response rating, Mallow ([6]; 31 g ai/ha) | Plant response rating, Mallow ([6]; 62 g ai/ha)
30: Plant response rating, Quackgrass ([3]; Postemergence, 16 g ai/ha)
65: Plant response rating, Crabgrass, Naked ([11]; Postemergence, 8 g ai/ha)
75: Plant response rating, Itchgrass ([7]; 31 g ai/ha, Preemergence) | Plant response rating, Crabgrass, Naked ([11]; 8 g ai/ha, Preemergence)
35: Plant response rating, Signalgrass ([5]; Postemergence, 8 g ai/ha)
20: Plant response rating, Itchgrass ([7]; Postemergence, 8 g ai/ha)
80: Plant response rating, Itchgrass ([7]; 62 g ai/ha, Preemergence) | Plant response rating, Guineagrass ([9]; Postemergence, 8 g ai/ha) | Plant response rating, Guineagrass ([9]; Postemergence, 16 g ai/ha) | Plant response rating, Crabgrass, Naked ([11]; Postemergence, 16 g ai/ha) | Plant response rating, Crabgrass, Naked ([11]; Postemergence, 31 g ai/ha)

CCc1cc(-c2ccc(Cl)cc2)nn1-c1c(OC(=O)C(C)(C)C)cnn(C)c1=O [Compound 40]
98: Plant response rating, Signalgrass ([5]; 31 g ai/ha, Preemergence)
90: Plant response rating, Bluegrass ([2]; 16 g ai/ha, Preemergence) | Plant response rating, Quackgrass ([3]; 62 g ai/ha, Preemergence) | Plant response rating, Signalgrass ([5]; Postemergence, 16 g ai/ha) | Plant response rating, Surinam Grass ([8]; Postemergence, 8 g ai/ha) | Plant response rating, Surinam Grass ([8]; Postemergence, 16 g ai/ha) | Plant response rating, Guineagrass ([9]; Postemergence, 16 g ai/ha) | Plant response rating, Crabgrass, Naked ([11]; 8 g ai/ha, Preemergence) | Plant response rating, Crabgrass, Naked ([11]; 16 g ai/ha, Preemergence)
80: Plant response rating, Quackgrass ([3]; 31 g ai/ha, Preemergence) | Plant response rating, Itchgrass ([7]; Postemergence, 31 g ai/ha) | Plant response rating, Itchgrass ([7]; Postemergence, 62 g ai/ha) | Plant response rating, Guineagrass ([9]; Postemergence, 8 g ai/ha)
75: Plant response rating, Signalgrass ([5]; Postemergence, 8 g ai/ha) | Plant response rating, Itchgrass ([7]; 31 g ai/ha, Preemergence) | Plant response rating, Barnyardgrass ([10]; 8 g ai/ha, Preemergence) | Plant response rating, Crabgrass, Naked ([11]; Postemergence, 16 g ai/ha)
15: Plant response rating, Bluegrass ([2]; Postemergence, 31 g ai/ha) | Plant response rating, Bluegrass ([2]; Postemergence, 62 g ai/ha)
0: Plant response rating, Bluegrass ([2]; Postemergence, 8 g ai/ha) | Plant response rating, Bluegrass ([2]; Postemergence, 16 g ai/ha) | Plant response rating, Morningglory ([4]; 16 g ai/ha, Preemergence) | Plant response rating, Morningglory ([4]; 31 g ai/ha, Preemergence) | Plant response rating, Morningglory ([4]; 62 g ai/ha, Preemergence) | Plant response rating, Morningglory ([4]; Postemergence, 8 g ai/ha) | Plant response rating, Morningglory ([4]; Postemergence, 16 g ai/ha) | Plant response rating, Morningglory ([4]; Postemergence, 31 g ai/ha) | Plant response rating, Morningglory ([4]; Postemergence, 62 g ai/ha) | Plant response rating, Mallow ([6]; 8 g ai/ha) | Plant response rating, Mallow ([6]; 16 g ai/ha) | Plant response rating, Mallow ([6]; 31 g ai/ha) | Plant response rating, Mallow ([6]; 62 g ai/ha)
100: Plant response rating, Signalgrass ([5]; 62 g ai/ha, Preemergence) | Plant response rating, Signalgrass ([5]; Postemergence, 62 g ai/ha) | Plant response rating, Surinam Grass ([8]; 16 g ai/ha, Preemergence) | Plant response rating, Surinam Grass ([8]; 31 g ai/ha, Preemergence) | Plant response rating, Surinam Grass ([8]; 62 g ai/ha, Preemergence) | Plant response rating, Surinam Grass ([8]; Postemergence, 31 g ai/ha) | Plant response rating, Surinam Grass ([8]; Postemergence, 62 g ai/ha) | Plant response rating, Guineagrass ([9]; 16 g ai/ha, Preemergence) | Plant response rating, Guineagrass ([9]; 31 g ai/ha, Preemergence) | Plant response rating, Guineagrass ([9]; 62 g ai/ha, Preemergence) | Plant response rating, Guineagrass ([9]; Postemergence, 62 g ai/ha) | Plant response rating, Barnyardgrass ([10]; 31 g ai/ha, Preemergence) | Plant response rating, Barnyardgrass ([10]; 62 g ai/ha, Preemergence) | Plant response rating, Barnyardgrass ([10]; Postemergence, 8 g ai/ha) | Plant response rating, Barnyardgrass ([10]; Postemergence, 16 g ai/ha) | Plant response rating, Barnyardgrass ([10]; Postemergence, 31 g ai/ha) | Plant response rating, Barnyardgrass ([10]; Postemergence, 62 g ai/ha) | Plant response rating, Crabgrass, Naked ([11]; 31 g ai/ha, Preemergence) | Plant response rating, Crabgrass, Naked ([11]; 62 g ai/ha, Preemergence) | Plant response rating, Crabgrass, Naked ([11]; Postemergence, 62 g ai/ha)
60: Plant response rating, Bluegrass ([2]; 8 g ai/ha, Preemergence) | Plant response rating, Quackgrass ([3]; 16 g ai/ha, Preemergence) | Plant response rating, Itchgrass ([7]; 16 g ai/ha, Preemergence)
40: Plant response rating, Itchgrass ([7]; Postemergence, 8 g ai/ha) | Plant response rating, Itchgrass ([7]; Postemergence, 16 g ai/ha)
30: Plant response rating, Quackgrass ([3]; Postemergence, 8 g ai/ha)
95: Plant response rating, Bluegrass ([2]; 62 g ai/ha, Preemergence) | Plant response rating, Quackgrass ([3]; Postemergence, 62 g ai/ha) | Plant response rating, Signalgrass ([5]; 16 g ai/ha, Preemergence) | Plant response rating, Signalgrass ([5]; Postemergence, 31 g ai/ha) | Plant response rating, Guineagrass ([9]; Postemergence, 31 g ai/ha) | Plant response rating, Barnyardgrass ([10]; 16 g ai/ha, Preemergence) | Plant response rating, Crabgrass, Naked ([11]; Postemergence, 31 g ai/ha)
70: Plant response rating, Quackgrass ([3]; Postemergence, 31 g ai/ha)
85: Plant response rating, Itchgrass ([7]; 62 g ai/ha, Preemergence)
50: Plant response rating, Quackgrass ([3]; Postemergence, 16 g ai/ha) | Plant response rating, Crabgrass, Naked ([11]; Postemergence, 8 g ai/ha)
